Test results published in paper PMC7932537, “Quantitative profiling of protease specificity” (PLoS Computational Biology, 2021).

System: MMP-2
Assay: Substrate phage display with NGS: relative probability (RP) of P3-P1' tetramer clusters
Format: biochemical, human
Conditions: for avg_RP: MMP2 - no binning; for relative_probability: tetramer clusters unique to the MMP-2 selectome, MMP-2 RP
[1] = average relative probability of the tetramer, redundant tetramers averaged out
[2] = average relative probability of the P3-P1' tetramer, redundant tetramers have been averaged out
[3] = average relative probability (RP) of the P3-P1' tetramer, redundant tetramers have been averaged out

Row | Substance | avg_RP [1] | avg_RP [2] | other results
1 | VRAV | 10.114 |  | 
2 | HAHL | 20.0775 |  | 
3 | MESL | 8.7752 |  | 
4 | PKWL | 29.287 |  | 
5 | PHLL |  | 16.4802 | 
6 | VRFM |  |  | avg_RP [3]: 15.2846
7 | PYPL | 30.8058 |  | 
8 | AKML |  |  | avg_RP [3]: 2.8249
9 | SRGL | 6.1644 |  | 
10 | PNYI |  | 6.6891 | 
11 | HRSL | 7.8508 |  | 
12 | AENL |  |  | avg_RP [3]: 6.7504
13 | PYHI | 15.3574 |  | 
14 | PEWM |  | 12.3271 | 
15 | VWYL |  | 3.6672 | 
16 | MQNL |  |  | avg_RP [3]: 23.8708
17 | ISFM |  | 23.3965 | 
18 | PMFL | 18.5721 |  | 
19 | AMNI |  | 4.1669 | 
20 | VLSL | 10.8506 |  | 
21 | VRWS | 8.0593 |  | 
22 | PSNM |  | 32.3748 | 
23 | PRNI | 31.9621 |  | 

Row | Substance | avg_RP [1] | avg_RP [2] | other results
24 | LKHL |  | 11.1441 | 
25 | LRWW |  | 6.3129 | 
26 | IYGL |  |  | avg_RP [3]: 9.4242
27 | ALDM |  |  | avg_RP [3]: 0.2655
28 | VEYL |  | 5.3014 | 
29 | LAQI |  |  | avg_RP [3]: 17.7137
30 | LAKL |  | 21.2737 | 
31 | PWAL | 31.9211 |  | 
32 | PNAF | 16.8865 |  | 
33 | VMNL |  | 18.6016 | 
34 | LQKL |  | 13.1993 | 
35 | PAAL [P3-P1' tetramer cluster] | 35.8015 |  | relative probability (RP) (tetramer probability in MMP2 set / naive library, 200 nM protease, 2 h, 37°C): 35.8015; relative probability (RP) (tetramer projected onto MMP-2 cleavage sites determined by Prudova et al. (2010)): 35.8
36 | LGYL | 24.8925 |  | 
37 | IQSL |  | 25.2682 | 
38 | MFSL |  |  | avg_RP [3]: 0.2905
39 | LSHL |  | 29.8814 | 
40 | MMQL |  | 0.816 | 
41 | YGNM |  | 13.8836 | 
42 | IAAM | 28.6184 |  | 
43 | PLPQ |  | 24.381 | 
44 | HMRL |  | 0.0574 | 
45 | PMHL | 30.095 |  | 
46 | VKFL |  |  | avg_RP [3]: 9.5539

Row | Substance | avg_RP [1] | avg_RP [2] | other results
47 | HMHM |  |  | avg_RP [3]: 0
48 | PFYM |  | 8.1842 | 
49 | PEPL | 26.8179 |  | 
50 | TWRL |  |  | avg_RP [3]: 0
51 | AHSL |  | 21.0212 | 
52 | PQSW |  | 25.7009 | 
53 | ASHM |  | 12.3873 | 
54 | PLHL |  | 34.1843 | 
55 | SANL | 23.7816 |  | 
56 | PASM |  |  | avg_RP [3]: 32.7286
57 | AHLL |  | 1.4368 | 
58 | NLAL |  |  | avg_RP [3]: 5.8865
59 | IRFL | 12.1004 |  | 
60 | PSML |  | 33.0235 | 
61 | YQSL |  |  | avg_RP [3]: 16.6669
62 | MQRL |  |  | avg_RP [3]: 9.3428
63 | VLNL | 18.9065 |  | 
64 | VRML |  | 15.9125 | 
65 | PQWI | 28.1021 |  | 
66 | LASL [P3-P1' tetramer cluster] |  | 31.1996 | relative_probability: 31.20
67 | INAL | 12.2423 |  | 
68 | VMLM |  | 0.5571 | 
69 | FRGL |  | 7.4752 | 

Row | Substance | avg_RP [1] | avg_RP [2] | other results
70 | PVHL | 32.2352 |  | 
71 | WASI | 12.5247 |  | 
72 | VNHL | 12.8499 |  | 
73 | VNLL |  | 0.5682 | 
74 | SGRL |  | 0.7262 | 
75 | LGNL | 33.3542 |  | 
76 | MAHL [P3-P1' tetramer cluster] | 29.5006 |  | relative_probability: 29.50
77 | PMLL |  | 14.7282 | 
78 | YLHL | 0.4077 |  | 
79 | GRAM | 2.5449 |  | 
80 | PRSH | 18.6153 |  | 
81 | PLNL |  |  | avg_RP [3]: 34.7054
82 | PSLI |  |  | avg_RP [3]: 16.6444
83 | ARSL |  | 17.186 | 
84 | ISAL | 31.8319 |  | 
85 | AQHL |  |  | avg_RP [3]: 16.6778
86 | PVQL |  | 26.094 | 
87 | MGNL [P3-P1' tetramer cluster] |  |  | relative_probability: 31.00
88 | SYNL | 6.0933 |  | 
89 | YLNL |  |  | avg_RP [3]: 0.3873
90 | ARPL | 27.8706 |  | 
91 | VLFL |  |  | avg_RP [3]: 1.6486
92 | AQDL |  | 0.5121 | 
